Assays:
[1] = tested on: Blumeria graminis f. sp. tritici (Erysiphe graminis f. sp. tritici); experiment: Blumeria graminis f. sp. tritici / wheat / leaf disc preventative (powdery mildew on wheat); type: in vivo; settings: foliar, wheat leaf segments cv. Kanzler, compared to untreated control leaf disks, read-out: disease control
From the text: Blumeria graminis f. sp. tritici (Erysiphe graminis f. sp. tritici)/Wheat/Leaf Disc Preventative (Powdery Mildew on Wheat) Wheat leaf segments cv. Kanzler were placed on agar in a multiwell plate (24-well format) and sprayed with the formulated test compound diluted in water. The leaf disks were inoculated by shaking powdery mildew infected plants above the test plates 1 day after application.

[2] = tested on: Puccinia recondita f. sp. tritici; experiment: Puccinia recondita f. sp. tritici / wheat / leaf disc curative (brown rust); type: in vivo; settings: foliar, 24 h, wheat leaf segments cv. Kanzler, curative (applied 1 day after inoculation), compared to untreated control leaf disks, read-out: disease control
Protocol: Puccinia recondita f. sp. tritici/Wheat/Leaf Disc Curative (Brown Rust) Wheat leaf segments cv. Kanzler are placed on agar in multiwell plates (24-well format). The leaf segments are inoculated with a spore suspension of the fungus. Plates were stored in darkness at 19° C. and 75% rh. The formulated test compound diluted in water was applied 1 day after inoculation.

Phakopsora pachyrhizi = Phakopsora pachyrhizi / soybean / leaf disk preventative (soybean rust); type: in vivo; settings: foliar, soybean leaf disks, compared to untreated control leaf disks, read-out: disease control
Procedure, shortened: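 Four-week-old soybean plants sprayed with formulated compound in water; leaf disks cut 1 day later, inoculated on the lower surface with spore suspension. Held 24-36 h dark at 20° C, 75% rh, then 20° C with 12 h light/day; % diseased disk area scored 12-14 days after application.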

[3] = tested on: Puccinia recondita f. sp. tritici; experiment: Puccinia recondita f. sp. tritici / wheat / leaf disc preventative (brown rust); type: in vivo; settings: foliar, wheat leaf segments cv. Kanzler, compared to untreated control leaf disks, read-out: disease control
Procedure, shortened: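 Wheat leaf segments (cv. Kanzler) on agar were sprayed preventatively with formulated compound diluted in water and inoculated with spores 1 day later. They were incubated at 19 °C, 75% rh, 12 h light/12 h dark. Percent disease control versus untreated was scored 7-9 days after application.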

Structure (SMILES) | pest or weed control at 200 ppm [1] | melting point | pest or weed control at 200 ppm [2] | pest or weed control at 200 ppm (Phakopsora pachyrhizi) | pest or weed control at 200 ppm [3]
CCN(C)/C=N/c1cc(OC)c(C(O)(C(F)(F)F)C(F)(F)F)cc1C [Compound E1.001] | ≥ 80% | 126 to 128 °C | ≥ 80% | ≥ 80% | ≥ 80%
CCN(C)/C=N/c1cc(OC)c(C(O)(c2ccc(F)cc2)C(F)(F)F)cc1C (stereo not shown) [Compound E1.004] | ≥ 80% | 102 to 104 °C | ≥ 80% | ≥ 80% | ≥ 80%
CCN(C)/C=N/c1cc(OC)c(C(O)(c2ccccc2)C(F)(F)F)cc1C (stereo not shown) [Compound E1.006] | ≥ 80% | 160 to 162 °C | ≥ 80% | ≥ 80% | ≥ 80%
CCN(C)/C=N/c1cc(OC)c(C(O)(c2cccc(C(F)(F)F)c2)C(F)(F)F)cc1C (stereo not shown) [Compound E1.010] | ≥ 80% | 121 to 123 °C | ≥ 80% | ≥ 80% | ≥ 80%
CCN(C)/C=N/c1cc(OC)c(C(O)(c2ccc(OC)cc2)C(F)(F)F)cc1C (stereo not shown) [Compound E1.011] | ≥ 80% | 67 to 71 °C | ≥ 80% | ≥ 80% | ≥ 80%
CCN(C)/C=N/c1cc(OC)c(C(O)(c2cccc(C)c2)C(F)(F)F)cc1C (stereo not shown) [Compound E1.016] | ≥ 80% | 125 to 127 °C | ≥ 80% | ≥ 80% | ≥ 80%
CCN(C)/C=N/c1cc(OC)c(C(O)(c2ccc(Cl)cc2Cl)C(F)(F)F)cc1C (stereo not shown) [Compound E1.017] | ≥ 80% | 119 to 121 °C | ≥ 80% | ≥ 80% | ≥ 80%
CCN(C)/C=N/c1cc(OC)c(C(O)(c2ccc(F)cc2F)C(F)(F)F)cc1C (stereo not shown) [Compound E1.018] | ≥ 80% | 113 to 114 °C | ≥ 80% | ≥ 80% | ≥ 80%
CCN(C)/C=N/c1cc(OC)c(C(O)(c2ccc(C)cc2)C(F)(F)F)cc1C (stereo not shown) [Compound E1.020] | ≥ 80% | 112 to 114 °C | ≥ 80% | ≥ 80% | ≥ 80%
CCN(C)/C=N/c1cc(OC)c(C(O)(c2cccc(C#N)c2)C(F)(F)F)cc1C (stereo not shown) [Compound E1.022] | ≥ 80% | 38 to 40 °C | ≥ 80% | ≥ 80% | ≥ 80%
CCN(C)/C=N/c1cc(OC)c(C(O)(c2cccc(Br)c2)C(F)(F)F)cc1C (stereo not shown) [Compound E1.023] | ≥ 80% | 98 to 100 °C | ≥ 80% | ≥ 80% | ≥ 80%
CCN(C)/C=N/c1cc(OC)c(C(O)(c2ccccc2C)C(F)(F)F)cc1C (stereo not shown) [Compound E1.024] | ≥ 80% | 115 to 117 °C | ≥ 80% | ≥ 80% | ≥ 80%
COc1cc(/N=C/N(C)C(C)C)c(C)cc1[C@@](O)(c1ccccc1)C(F)(F)F [Compound E1.026] | ≥ 80% | 110.5 to 111.7 °C | ≥ 80% | ≥ 80% | ≥ 80%
COc1cc(/N=C/N(C)C(C)C)c(C)cc1[C@](O)(c1ccccc1)C(F)(F)F [Compound E1.027] | ≥ 80% | 110.5 to 111.7 °C | ≥ 80% | ≥ 80% | ≥ 80%
CCN(C)/C=N/c1cc(OC)c(C(O)(c2cccc(F)c2)C(F)(F)F)cc1C (stereo not shown) [Compound E1.029] | ≥ 80% | 130 to 132 °C | ≥ 80% | ≥ 80% | ≥ 80%
CCN(C)/C=N/c1cc(OC)c(C(O)(c2cc(F)ccc2F)C(F)(F)F)cc1C (stereo not shown) [Compound E1.031] | ≥ 80% | 137 to 140 °C | ≥ 80% | ≥ 80% | ≥ 80%
CCN(C)/C=N/c1cc(OC)c(C(O)(c2ccccc2Cl)C(F)(F)F)cc1C (stereo not shown) [Compound E1.033] | ≥ 80% | 97 to 100 °C | ≥ 80% | ≥ 80% | ≥ 80%
CCN(C)/C=N/c1cc(OC)c(C(O)(c2ccccc2F)C(F)(F)F)cc1C (stereo not shown) [Compound E1.034] | ≥ 80% | 96 to 98 °C | ≥ 80% | ≥ 80% | ≥ 80%
CCN(C)/C=N/c1cc(OC)c(C(O)(c2ccccc2Br)C(F)(F)F)cc1C (stereo not shown) [Compound E1.035] | ≥ 80% | 114 to 116 °C | ≥ 80% | ≥ 80% | ≥ 80%
CCN(C)/C=N/c1cc(OC)c(C(O)(C2CC2)C(F)(F)F)cc1C (stereo not shown) [Compound E1.052] | ≥ 80% | 64 to 72 °C | ≥ 80% | ≥ 80% | ≥ 80%
CCC(O)(c1cc(C)c(/N=C/N(C)C(C)C)cc1OC)C(F)(F)F (stereo not shown) [Compound E1.063] | ≥ 80% | 73 to 76 °C | ≥ 80% | ≥ 80% | ≥ 80%
COc1cc(/N=C/N(C)C(C)C)c(C)cc1C(O)(C1CC1)C(F)(F)F (stereo not shown) [Compound E1.064] | ≥ 80% | 90 to 93 °C | ≥ 80% | ≥ 80% | ≥ 80%
COc1cc(/N=C/N(C)C(C)C)c(C)cc1C(O)(C(C)C)C(F)(F)F (stereo not shown) [Compound E1.067] | ≥ 80% | 78 to 79 °C | ≥ 80% | ≥ 80% | ≥ 80%
C=CCC(O)(c1cc(C)c(/N=C/N(C)CC)cc1OC)C(F)(F)F (stereo not shown) [Compound E1.071] | ≥ 80% | 123 to 127 °C | ≥ 80% | ≥ 80% | ≥ 80%
CCN(C)/C=N/c1cc(OC)c(C(O)(c2ccccc2)C(C)(C)C)cc1C (stereo not shown) [Compound E1.125] | – | 90 to 92 °C | ≥ 80% | ≥ 80% | ≥ 80%

From patent US10723695B2, “Microbiocidal phenylamidine derivatives” (SYNGENTA PARTICIPATIONS AG, priority 2015, dated 2020)
